Test results as given in US20230286973A1, “PROTEIN SECRETION INHIBITORS” (KEZAR LIFE SCIENCES, priority 2020, published 2023).
Like-named read-outs stand apart in the source and are kept apart here.

Key:
[1] = tested on: HER3-ss+4aa/Gaussia Luciferase; assay: Dox-Induced Her3-ss-Gluc Assay; assay type: cell-based
Summary of the method: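 Doxycycline-inducible HER3 signal sequence+4aa/Gaussia luciferase construct, stably integrated in Flp-In 293 T-REx cells; compound dilutions applied with doxycycline at 37° C., 5% CO2.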

[2] = Liver Microsome Stability Assay (mouse); conditions: mouse liver microsomes, with NADPH, 1.0 uM compound
Description: (§1) Stability of a compound was assessed in the presence of liver microsomes from various sources—mouse, rat, monkey and human liver microsomes. 1.0 uM compound, 0.4% DMSO in 0.1 M Potassium Phosphate with 1.0 mg/mL liver microsomes, were incubated at 37° C. with or without 1 mM NADPH. The samples were quenched at 0, and 30 minutes.

[3] = tested on: TNFα-FL/Gaussia Luciferase; assay: Dox Induced TNFα-FL-Gluc Assay; assay type: cell-based; conditions: for IC50: 24 hr Dox induction, 293FRT/TO cells, read-out: 24 hr Dox Inducible TNFaFLGluc 293FRT/TO: Mean IC50; for 24 hr Dox Inducible TNFaFLGluc 293FRT/TO: TNF/PD1: ratio of TNFaFLGluc IC50 to PD1ssGluc IC50
Summary of the method: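 Hygromycin/blasticidin-selected Flp-In 293 T-REx cells, TNFα-FL/Gaussia luciferase fusion under T-REx control; overnight plating, then compound in DMSO/media with doxycycline at 37 °C, 5% CO2; stereo-undefined structures tested as mixtures.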

[4] = tested on: multiple myeloma cell line U266B1; assay: U266 Cell Viability Assay; assay type: cell-based, human; conditions: Homo sapiens, U266B1 cells, Celltiter-Glo
Summary of the method: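 After growth in serum-supplemented RPMI 1640, cells received serially diluted compound in DMSO/media and were kept 48 hours before a CellTiter-Glo luminescence readout.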

[5] = Liver Microsome Stability Assay (human); conditions: human liver microsomes, with NADPH, 1.0 uM compound
Description: as §1

[6] = tested on: multiple myeloma cell line NCI-H929; assay: H929 Cell Viability Assay; assay type: cell-based, human; conditions: Homo sapiens, NCI-H929 cells, Celltiter-Glo
Summary of the method: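 A 48-hour compound treatment of cells in 10% FBS RPMI medium was followed by luciferase-based viability quantification.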

[7] = tested on: IL-2-FL/Gaussia Luciferase; assay: Dox Induced IL2-FL-Gluc Assay; assay type: cell-based; conditions: for IC50: 24 hr Dox induction, 293FRT/TO cells, read-out: 24 hr Dox Inducible IL2FLGluc 293FRT/TO: Mean IC50; for 24 hr Dox Inducible IL2FLGluc 293FRT/TO: IL2/PD1: ratio of IL2FLGluc IC50 to PD1ssGluc IC50
Summary of the method: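 A hygromycin- and blasticidin-resistant 293 T-REx clone carrying inducible IL-2–Gaussia luciferase (full-length IL-2, residues 1-153) serves as the cell system. After overnight plating, the cells get test compounds together with doxycycline in DMSO/media and are incubated at 37° C, 5% CO2.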

[8] = tested on: PD1-ss+10aa/Gaussia Luciferase; assay: Dox-Induced PD1-ss-Gluc Assay; assay type: cell-based
Summary of the method: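 The cell line was made by transfecting Flp-In 293 T-REx cells with a PD1 signal sequence+10aa–Gaussia luciferase fusion under T-REx control and selecting with hygromycin and blasticidin. Cells were seeded, and next day compound plus doxycycline was added at 37 °C, 5% CO2.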

[9] = Liver Microsome Stability Assay (monkey); conditions: monkey liver microsomes, with NADPH, 1.0 uM compound
Description: as §1

[10] = Liver Microsome Stability Assay (rat); conditions: rat liver microsomes, with NADPH, 1.0 uM compound
Description: as §1

[11] = 24 hr Dox induction; 293FRT/TO cells; read-out: 24 hr Dox Inducible Her3(ss + 4)Gluc 293FRT/TO: Mean IC50
[12] = 24 hr Dox induction; 293FRT/TO cells; read-out: 24 hr Dox Inducible PD1ssGluc 293FRT/TO: Mean IC50

Row | IC50 [1, 11] [nM] | Liver Microsome Stability (Multiple Species): Mouse - % Remaining after 30 min w/NADPH [2] [%] | IC50 [3] [nM] | EC50 ([4]; U-266, 48 h) [nM] | Liver Microsome Stability (Multiple Species): Human - % Remaining after 30 min w/NADPH [5] [%] | EC50 ([6]; NCI-H929, 48 h) [nM] | IC50 [7] [nM] | IC50 [8, 12] [nM] | Liver Microsome Stability (Multiple Species): Monkey - % Remaining after 30 min w/NADPH [9] [%] | Liver Microsome Stability (Multiple Species): Rat - % Remaining after 30 min w/NADPH [10] [%] | SMILES | 24 hr Dox Inducible TNFaFLGluc 293FRT/TO: TNF/PD1 [3] | 24 hr Dox Inducible IL2FLGluc 293FRT/TO: IL2/PD1 [7] | IC50 ([1]; read-out: 24 hr Dox Inducible Her3(ss + 4)Gluc 293FRT/TO: Mean IC50; 24 hr Dox induction; 293FRT/TO cells) [nM] | EC50 ([4]; U-266, 48 hr) [nM] | EC50 ([6]; 48 hr) [nM] | IC50 ([8]; read-out: 24 hr Dox Inducible PD1ssGluc 293FRT/TO: Mean IC50; 24 hr Dox induction; 293FRT/TO cells) [nM]
1 | 1210 | 71.7 | 11000 | 11500 | 57.6 | 7330 | 3330 | 952 | 3.2 | 76 | O=C(Nc1nc([C@H]2CCCN2c2ccc(O[C@H]3CCCNC3)cc2)cs1)c1cccn1Cc1ccnc(F)c1 [Compound A88, 1-((2-fluoropyridin-4-yl)methyl)-N-(4-((R)-1-(4-(((S)-piperidin-3-yl)oxy)phenyl)pyrrolidin-2-yl)thiazol-2-yl)-1H-pyrrole-2-carboxamide] | 11.5 | 3.5 | – | – | – | –
2 | 1110 | 40.4 | 18400 | 8300 | 47 | 6370 | 2710 | 558 | 2.45 | 56.9 | O=C(Nc1nc([C@H]2CCCN2c2ccc(OC3=CCNCC3)cc2)cs1)c1cccn1Cc1ccnc(F)c1 [Compound A89, (R)-1-((2-fluoropyridin-4-yl)methyl)-N-(4-(1-(4-((1,2,3,6-tetrahydropyridin-4-yl)oxy)phenyl)pyrrolidin-2-yl)thiazol-2-yl)-1H-pyrrole-2-carboxamide] | 32.9 | 4.9 | – | – | – | –
3 | 26.5 | 27.4 | 148 | > 25000 | 43 | 346 | 25 | 14.8 | 2.34 | 19.7 | O=C(Nc1nc([C@H]2CCCN2c2ccc(OC3CCN(C(=O)C(F)F)CC3)cc2)cs1)c1cccn1Cc1ccnc(F)c1 [Compound A91, (R)-N-(4-(1-(4-((1-(2,2-difluoroacetyl)piperidin-4-yl)oxy)phenyl)pyrrolidin-2-yl)thiazol-2-yl)-1-((2-fluoropyridin-4-yl)methyl)-1H-pyrrole-2-carboxamide] | 10 | 1.7 | – | – | – | –
4 | 47.3 | 52.3 | 254 | > 25000 | 63.5 | 463 | 30.6 | 23.3 | 22.5 | 43.6 | O=C(Nc1nc([C@H]2CCCN2c2ccc(OC3CCN(C(=O)C(F)(F)F)CC3)cc2)cs1)c1cccn1Cc1ccnc(F)c1 [Compound A92, (R)-1-((2-fluoropyridin-4-yl)methyl)-N-(4-(1-(4-((1-(2,2,2-trifluoroacetyl)piperidin-4-yl)oxy)phenyl)pyrrolidin-2-yl)thiazol-2-yl)-1H-pyrrole-2-carboxamide] | 10.9 | 1.3 | – | – | – | –
5 | 27.1 | 1.18 | 187 | > 25000 | 4.24 | 390 | 26.3 | 12.3 | 0.14 | 0.11 | CC(=O)Nc1ccc(N2CCC[C@@H]2c2csc(NC(=O)c3cccn3Cc3ccnc(F)c3)n2)cc1F [Compound A93, (R)-N-(4-(1-(4-acetamido-3-fluorophenyl)pyrrolidin-2-yl)thiazol-2-yl)-1-((2-fluoropyridin-4-yl)methyl)-1H-pyrrole-2-carboxamide] | 15.1 | 2.1 | – | – | – | –
6 | 14.5 | 10.9 | 168 | > 25000 | 11.1 | 642 | 17.8 | 8.73 | 0.9 | 12.8 | [2H]c1c([2H])c([2H])c(N2CCC[C@@H]2c2csc(NC(=O)c3cccn3Cc3ccnc(F)c3)n2)c([2H])c1[2H] [Compound A94, (R)-1-((2-fluoropyridin-4-yl)methyl)-N-(4-(1-(phenyl-d5)pyrrolidin-2-yl)thiazol-2-yl)-1H-pyrrole-2-carboxamide] | 19.2 | 2 | – | – | – | –
7 | 14.8 | 10.2 | 133 | > 25000 | 8.25 | 590 | 18.6 | 8.34 | 0.88 | 13.9 | [2H]c1cc([2H])cc(N2CCC[C@@H]2c2csc(NC(=O)c3cccn3Cc3ccnc(F)c3)n2)c1 [Compound A95, (R)-1-((2-fluoropyridin-4-yl)methyl)-N-(4-(1-(phenyl-3,5-d2)pyrrolidin-2-yl)thiazol-2-yl)-1H-pyrrole-2-carboxamide] | 15.9 | 2.2 | – | – | – | –
8 | 4.2 | 0.28 | 40.5 | > 25000 | 1.42 | 34.2 | 4.21 | 1.49 | 0.12 | 1 | CC(=O)Nc1cc(F)c(N2CCC[C@@H]2c2csc(NC(=O)c3cccn3Cc3ccnc(F)c3)n2)c(F)c1 [Compound A96, (R)-N-(4-(1-(4-acetamido-2,6-difluorophenyl)pyrrolidin-2-yl)thiazol-2-yl)-1-((2-fluoropyridin-4-yl)methyl)-1H-pyrrole-2-carboxamide] | 27.2 | 2.8 | – | – | – | –

Row | SMILES | IC50 [1, 11] [nM] | Liver Microsome Stability (Multiple Species): Mouse - % Remaining after 30 min w/NADPH [2] [%] | IC50 [3] [nM] | EC50 ([4]; U-266, 48 h) [nM] | Liver Microsome Stability (Multiple Species): Human - % Remaining after 30 min w/NADPH [5] [%] | EC50 ([6]; NCI-H929, 48 h) [nM] | IC50 [7] [nM] | IC50 [8, 12] [nM] | Liver Microsome Stability (Multiple Species): Monkey - % Remaining after 30 min w/NADPH [9] [%] | Liver Microsome Stability (Multiple Species): Rat - % Remaining after 30 min w/NADPH [10] [%] | 24 hr Dox Inducible TNFaFLGluc 293FRT/TO: TNF/PD1 [3] | 24 hr Dox Inducible IL2FLGluc 293FRT/TO: IL2/PD1 [7] | IC50 ([1]; read-out: 24 hr Dox Inducible Her3(ss + 4)Gluc 293FRT/TO: Mean IC50; 24 hr Dox induction; 293FRT/TO cells) [nM] | EC50 ([4]; U-266, 48 hr) [nM] | EC50 ([6]; 48 hr) [nM] | IC50 ([8]; read-out: 24 hr Dox Inducible PD1ssGluc 293FRT/TO: Mean IC50; 24 hr Dox induction; 293FRT/TO cells) [nM]
9 | O=C(Nc1nc([C@H]2CCCN2c2ccc(OC3CCN(C(=O)CF)CC3)cc2)cs1)c1cccn1Cc1ccnc(F)c1 [Compound A90, (R)-N-(4-(1-(4-((1-(2-fluoroacetyl)piperidin-4-yl)oxy)phenyl)pyrrolidin-2-yl)thiazol-2-yl)-1-((2-fluoropyridin-4-yl)methyl)-1H-pyrrole-2-carboxamide] | – | 21.7 | 512 | – | 22.3 | – | 82.9 | – | 1.3 | 39.1 | 12.4 | 2 | 82.8 | > 25000 | 1080 | 41.5
